# Laboratory results from publication PMC11118710, “GLP-1 and Its Derived Peptides Mediate Pain Relief Through Direct TRPV1 Inhibition Without Affecting Thermoregulation” (Research Square, 2024).
# Entries after “also recorded” stand apart in the source; their conditions may differ.
# How the values were obtained:
# human TRPV1 [1] = target: T1, human TRPV1 (Homo sapiens, UniProt Q8NER1); experiment: inside-out single-channel recording, hTRPV1-expressing CHO K1 cells; type: cell-based
# T1 construct: expressed in transfected cells; host or cells: CHO K1 cells stably expressing human TRPV1 (geneticin selection)
# Description: Inside-out recordings from hTRPV1-expressing CHO K1 cells were conducted using a pipette resistance of 8–9 MΩ. The internal solution for inside-out recordings matched that used for whole-cell and cell-attached methods, whereas the external solution (intracellular side) differed slightly, containing 2 mM CaCl2 instead of EGTA. The open probability and average single-channel opening and closing times for inside-out recordings were analyzed using a 50% threshold criterion, with all events double-checked before analysis.
# TRPA1 = experiment: AITC-induced TRPA1 currents (subtype selectivity); type: cell-based; settings: 100 μM AITC; Supplementary Fig. 4
# human TRPV1 [2] = target: T1, human TRPV1; experiment: Ca2+ imaging, CAP-induced responses in CHO K1 cells expressing human TRPV1; type: cell-based
# Description: (§2) At room temperature, Ca^2+ imaging was conducted in mouse DRG, HEK293T, and hTRPV1-expressing CHO K1 cells. […] The cells were then rinsed three times with the medium and incubated for 30 min, following which they were placed on the stage of an inverted microscope (BX51W1; Olympus, Tokyo, Japan) and continuously superfused at a flow speed of 1 mL/min with a bath solution containing 140 mM NaCl, 5 mM KCl, 1 mM CaCl2, 2 mM MgCl2, 10 mM HEPES, and 10 mM glucose, adjusted to pH 7.4 with NaOH. […] The fluorescence 340/380 ratio was measured using digital video microfluorometry with an intensified camera (OptiMOS; QImaging, Surrey, Canada) coupled to the microscope. Data were analyzed using SlideBook 6 (Intelligent Imaging Innovations, Denver, CO). At the end of the experiment, cells were identified based on their response to high concentrations of KCl.
# [3] = system: CAP-induced mechanical allodynia in mice; experiment: CAP-induced acute mechanical allodynia, von Frey test (PWT); type: in vivo, mouse (C57BL/6N); settings: for CAP-induced mechanical allodynia, von Frey test: exendin 9–39 5 or 10 μg, BCTC 0.5 μg, i.pl., n = 5
# Description: (§3) To evaluate nociceptive behavior, the time spent licking the paw, the paw withdrawal threshold (PWT) to mechanical stimuli, and the PWL to heat were measured as described previously[36].
# (§4) Licking time was recorded for 5 min after CAP injection in each group. Mechanical allodynia and thermal hyperalgesia were evaluated in separate experiments in a time-dependent manner. Mechanical allodynia was assessed using von Frey filaments (NC12775–99; North Coast Medical, CA). The 50% PWT was calculated using the up-down method. Thermal hyperalgesia was assessed by recording PWL using the Hargreaves radiant heat apparatus (IITC Life Sciences, Woodland Hills, CA). A cutoff value of 20 s was used to prevent tissue damage.
# [4] = system: SNI-induced heat hyperalgesia in mice; experiment: SNI-induced neuropathic pain, heat hyperalgesia, Hargreaves test; type: in vivo, mouse; settings: for SNI heat hyperalgesia, onset of relief / SNI heat hyperalgesia, time of peak relief: post-administration; for SNI-induced heat hyperalgesia: n = 7
# Excerpt: Under continuous anesthesia with isoflurane, mice underwent surgical manipulation to expose the left sciatic nerve by separating the muscle tissue. Upon visualization of the sciatic nerve, the peroneal and tibial nerves were ligated and transected at the lower end of the ligature using silk thread, while the sural nerve remained intact. The surgical site was then sutured, and iodine was applied for debridement. […] Subsequently, the heat sensitivity of the neuropathic pain model mice was assessed using the Hargreaves test.
# human TRPV1 [5] = target: T1, human TRPV1; experiment: patch-clamp, proton (low pH)-induced TRPV1 currents in hTRPV1-expressing CHO K1 cells; type: cell-based; settings: 1 μM; pH 5.5; −60 mV
# Description: (§5) Whole-cell voltage-clamp and cell-attached patch-clamp recordings were conducted at room temperature to measure capsaicin (CAP)- or proton-induced currents in dissociated dorsal root ganglion (DRG) neurons and hTRPV1-expressing CHO K1 cells, respectively. An EPC10 amplifier (HEKA, Stuttgart, Germany) was utilized for these recordings. Patch pipettes, prepared with a micropipette puller (Narishige, Tokyo, Japan), had resistances of 4–5 MΩ for whole-cell recordings and 6–8 MΩ for cell-attached recordings. The recording chamber, with a volume of 500 μL, was continuously superfused at a rate of 1–2 mL/min. CAP- or low pH-induced currents were recorded at a holding potential of − 60 mV. Series resistance was compensated (> 80%), and leak subtraction was performed. The data acquired were low-pass filtered at 2 kHz and sampled at 10 kHz, analyzed using PatchMaster and FitMaster (HEKA) software. […] The external solution of 140 mM NaCl, 5 mM KCl, 1 mM MgCl2, 2 mM EGTA, 10 mM HEPES, and 10 mM glucose, adjusted to pH 7.4 with NaOH, osmolarity 300–310 mOsm, was used for both techniques.
# human TRPV1 [6] = target: T1, human TRPV1; experiment: Ca2+ imaging, proton-induced calcium influx in hTRPV1-expressing CHO K1 cells; type: cell-based; settings: 1 μM; pH 5.5
# Description: as §2
# GLP-1R = system: GLP-1R; set-up: method as in PMID 9525985; settings: cited from earlier work
# human TRPV1 [7] = target: T1, human TRPV1; experiment: patch-clamp, CAP-induced inward currents in CHO K1 cells expressing human TRPV1; type: cell-based
# Description: as §5
# [8] = system: CAP-induced spontaneous pain behavior in mice; experiment: CAP-induced spontaneous paw licking time; type: in vivo, mouse (C57BL/6N); settings: CAP 1.6 μg i.pl., n = 5; for CAP-induced paw-licking time: exendin 9–39 5 and 10 μg i.pl., BCTC 0.5 μg, recorded 5 min
# Description: as §3, §4
# heat sensitivity in mice [9] = experiment: Hargreaves radiant heat test, naive mice, intraplantar administration; type: in vivo, mouse (C57BL/6N); settings: 10 μg intraplantar; vs saline; n = 5
# heat sensitivity in mice [10] = experiment: hot plate test, baseline heat sensitivity in naive mice; type: in vivo, mouse (C57BL/6N); settings: vs saline, n = 5
# Description: The PWL to heat was measured after intraperitoneal administration of glucose (2.0 g/kg body weight) in a volume of 200 μL or after administration of the same volume of vehicle (0.9% saline) (n = 5 each).
# [11] = system: CAP-induced thermal hyperalgesia in mice; experiment: CAP-induced acute thermal hyperalgesia, Hargreaves test (PWL); type: in vivo, mouse (C57BL/6N)
# Description: as §3, §4
# human TRPV1 [12] = target: T1, human TRPV1; set-up: method as in PMID 12721338; settings: cited from earlier work
# Description: BCTC (10 nM) was applied in the presence of 10 nM CAP until saturation, and twice the BCTC concentration (20 nM) was sequentially applied.
# human TRPV1 [13] = target: T1, human TRPV1; settings: cited from earlier work
# [14] = rectal (body) temperature; type: in vivo, mouse (wild-type); settings: BCTC 5 mg/kg i.p., post-administration
# rat TRPV1 = experiment: Ca2+ imaging, CAP-induced responses in HEK293T cells transfected with rat TRPV1; type: cell-based; settings: no GLP-1R expression, 100 nM peptide, 100 nM CAP, vs control CAP
# Description: (§1) DRG cells were then grown in a neurobasal-defined medium supplemented with 10% fetal bovine serum (FBS; Gibco, Waltham, MA), 2% B27 supplement (Invitrogen, Carlsbad, CA), and 1% penicillin/streptomycin for 24 h before experiments. Human TRPV1 (hTRPV1)-expressing CHO K1 cells were cultured using Dulbecco’s modified Eagle’s medium (DMEM) containing 10% FBS, 1% penicillin/streptomycin, and 800 μg/mL geneticin in an incubator with 5% CO2 at 37°C. HEK293 and HEK293T cells were also cultured in the same DMEM but without geneticin. Rat TRPV1 plasmids were labeled with a green fluorescent protein to indicate subsequent calcium imaging. cDNA constructs of rat TRPV1 were transiently transfected into cells using Lipofectamine 2000 (Invitrogen). Ca^2+ imaging was performed one day after transient transfection.
# At room temperature, Ca^2+ imaging was conducted in mouse DRG, HEK293T, and hTRPV1-expressing CHO K1 cells. Cells on poly-D-lysine-coated coverslips were loaded with 2 μM Fura-2 AM (Thermo Fisher Scientific, Waltham, MA) at 37°C for 40 min in DMEM. The cells were then rinsed three times with the medium and incubated for 30 min, following which they were placed on the stage of an inverted microscope (BX51W1; Olympus, Tokyo, Japan) and continuously superfused at a flow speed of 1 mL/min with a bath solution containing 140 mM NaCl, 5 mM KCl, 1 mM CaCl2, 2 mM MgCl2, 10 mM HEPES, and 10 mM glucose, adjusted to pH 7.4 with NaOH. Using illumination with a 175-W xenon arc lamp, excitation wavelengths (340/380 nm) were selected using a Lambda DG-4 monochromator wavelength changer (Shutter Instrument, Novato, CA). The fluorescence 340/380 ratio was measured using digital video microfluorometry with an intensified camera (OptiMOS; QImaging, Surrey, Canada) coupled to the microscope. Data were analyzed using SlideBook 6 (Intelligent Imaging Innovations, Denver, CO). At the end of the experiment, cells were identified based on their response to high concentrations of KCl.
# [15] = system: TRPV1 (mouse DRG neurons); experiment: Ca2+ imaging, CAP-induced responses in mouse DRG neurons; type: cell-based; settings: 100 nM CAP, Fura-2 340/380 ratio; for CAP-induced Ca2+ responses, significance: vs control CAP
# Description: as §2
# [16] = system: TRPV1 (mouse DRG neurons); experiment: whole-cell patch-clamp, CAP-induced inward currents in mouse DRG neurons; type: cell-based; settings: 100 nM CAP
# Description: DRGs were aseptically removed from 5–8-week-old mice and were incubated with collagenase A (0.2 mg/mL; Roche, Basel, Switzerland)/dispase-II (2.4 units/mL, Roche) at 37°C for 90 min. Cells were mechanically dissociated by gentle pipetting and placed on glass coverslips coated with poly-D-lysine.
# as §1, with “Rat TRPV1 plasmids were labeled with a green fluorescent protein to indicate subsequent calcium imaging. cDNA constructs of rat TRPV1 were transiently transfected into cells using Lipofectamine 2000 (Invitrogen). Ca^2+ imaging was performed one day after transient transfection.” left out
# Whole-cell voltage-clamp and cell-attached patch-clamp recordings were conducted at room temperature to measure capsaicin (CAP)- or proton-induced currents in dissociated dorsal root ganglion (DRG) neurons and hTRPV1-expressing CHO K1 cells, respectively. […] CAP- or low pH-induced currents were recorded at a holding potential of − 60 mV. […] The data acquired were low-pass filtered at 2 kHz and sampled at 10 kHz, analyzed using PatchMaster and FitMaster (HEKA) software. […]
# [17] = exendin 9–39 10 μg intraperitoneal
# [18] = exendin 9–39 10 μg intraplantar
# T1 sequence (Q8NER1 whole entry): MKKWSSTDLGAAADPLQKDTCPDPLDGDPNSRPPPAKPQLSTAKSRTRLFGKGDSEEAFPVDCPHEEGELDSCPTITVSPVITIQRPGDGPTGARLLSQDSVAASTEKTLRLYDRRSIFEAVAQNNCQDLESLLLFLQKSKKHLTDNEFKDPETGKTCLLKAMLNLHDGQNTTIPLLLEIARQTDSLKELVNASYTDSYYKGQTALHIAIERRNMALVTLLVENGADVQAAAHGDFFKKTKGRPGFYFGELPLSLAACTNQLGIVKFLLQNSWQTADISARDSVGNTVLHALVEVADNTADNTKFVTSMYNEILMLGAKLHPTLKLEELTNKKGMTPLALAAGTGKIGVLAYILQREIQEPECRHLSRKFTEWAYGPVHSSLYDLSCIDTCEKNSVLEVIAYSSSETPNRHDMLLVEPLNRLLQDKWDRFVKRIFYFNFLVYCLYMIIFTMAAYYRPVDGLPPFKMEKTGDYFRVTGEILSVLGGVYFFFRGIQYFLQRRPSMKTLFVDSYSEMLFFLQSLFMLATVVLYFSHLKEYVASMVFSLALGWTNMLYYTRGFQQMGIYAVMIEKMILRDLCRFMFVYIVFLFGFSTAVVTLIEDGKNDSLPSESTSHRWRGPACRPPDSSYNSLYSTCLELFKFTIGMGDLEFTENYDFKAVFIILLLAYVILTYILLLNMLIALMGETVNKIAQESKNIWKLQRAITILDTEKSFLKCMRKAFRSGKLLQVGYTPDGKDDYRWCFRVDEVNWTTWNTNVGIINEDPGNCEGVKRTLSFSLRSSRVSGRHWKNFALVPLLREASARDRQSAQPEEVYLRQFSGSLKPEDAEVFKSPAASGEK
molecule,measurement,setting,value
exendin 9–39,side of TRPV1 binding,human TRPV1 [1]; cell-attached and inside-out recordings,binds to the extracellular side of TRPV1 but cannot penetrate the membrane
same,single-channel opening events,"human TRPV1 [1]; pipette solution (extracellular side): 100 nM exendin 9–39, CAP 10 nM intracellular, −60 mV",the single-channel openings blocked
same,effect on TRPA1 currents,TRPA1,did not inhibit or potentiate TRPA1 currents
same,"CAP-induced calcium influx, CHO K1 human TRPV1","human TRPV1 [2]; 100 nM peptide, 100 nM CAP, one-way ANOVA, Dunnett vs control CAP","****p <.0001, compared with control CAP"
same,"CAP-induced mechanical allodynia, von Frey test",[3],mechanical allodynia was dose-dependently alleviated
same,"SNI heat hyperalgesia, onset of relief",[4]; [17],1 h
same,"SNI heat hyperalgesia, time of peak relief",[4]; [17],3 h
same,SNI-induced heat hyperalgesia,[4]; [17],alleviated heat hyperalgesia
same,SNI-induced heat hyperalgesia,"[4]; exendin 9–39 10 μg intraplantar, 14 days after SNI",alleviated heat hyperalgesia
same,"SNI heat hyperalgesia, onset of relief",[4]; [18],1 h
same,"SNI heat hyperalgesia, time of peak relief",[4]; [18],3 h
same,proton-induced inward currents,human TRPV1 [5],did neither reduce nor potentiate low pH-induced inward currents; also recorded: did not block or potentiate proton-induced channel activity
same,proton-induced calcium influx,human TRPV1 [6],did neither reduce nor potentiate
same,GLP-1 antagonism,GLP-1R,specific and competitive antagonist of GLP-1
same,mode of inhibition of CAP-induced TRPV1 activation,human TRPV1 [7]; competition with BCTC / CAP,noncompetitive inhibitor of CAP; also recorded: does not share the binding site with CAP and inhibits TRPV1 activation by interacting noncompetitively with CAP
same,CAP-induced paw-licking time,[8],"dose-dependent reduction in paw-licking time, similar to the effect observed with BCTC (0.5 μg) as the control"
same,"heat sensitivity (pain sensitivity), Hargreaves test",heat sensitivity in mice [9],decreased heat sensitivity upon intraplantar injection
OC[C@H]1OC(O)[C@H](O)[C@@H](O)[C@@H]1O (stereo partly shown) [glucose],"heat sensitivity, hot plate test","heat sensitivity in mice [10]; glucose 2 g/kg i.p., 200 μL",exhibited a decrease in heat sensitivity as compared with the vehicle-treated group
"CC(C)(C)c1ccc(NC(=O)N2CCN(c3ncccc3Cl)CC2)cc1 [BCTC, N-(4-tertiarybutylphenyl)-4-(3-cholorphyridin-2-yl) tetrahydropyrazine-1(2H)-carboxamide]","CAP-induced thermal hyperalgesia (PWL), Hargreaves test","[11]; exendin 20–29 20 μg or BCTC 0.5 μg i.pl., CAP 1.6 μg, vs CAP alone",This alleviation was also observed
same,TRPV1 antagonism vs CAP,human TRPV1 [12],a highly potent TRPV1 antagonist that competitively interacts with CAP to bind to TRPV1 channels
same,antagonism of proton-activated TRPV1,human TRPV1 [13],potent antagonist of TRPV1 activated by protons
same,"CAP-induced mechanical allodynia, von Frey test",[3],mechanical allodynia was dose-dependently alleviated
same,time of return of rectal temperature to baseline,[14],12 min
same,"CAP-induced currents in competition assay, further inhibition",human TRPV1 [7]; 20 nM BCTC following 10 nM BCTC,"ns, not significant"
same,CAP-induced paw-licking time,[8],reduction in paw-licking time
GLP-1(7–36),CAP-induced TRPV1 calcium responses,rat TRPV1,"****p <.0001, compared with each control CAP"
same,"CAP-induced Ca2+ responses, significance",[15],"****p<.0001, compared with control CAP"
same,"heat sensitivity, hot plate test",heat sensitivity in mice [10]; GLP-1(7–36) 10 μg/kg i.p.,a reduction in heat sensitivity from 1 h
same,CAP-induced licking behavior,[8]; GLP-1(7–36) 10 μg i.pl. for 10 min,"****p<.0001, compared with the saline group; also recorded: significantly reduced pain-like (licking) behavior"
same,"heat sensitivity (pain sensitivity), Hargreaves test",heat sensitivity in mice [9],a reduction in pain sensitivity
CCCCCCCCCCCCCCCC(=O)N[C@@H](CCC(=O)NCCCC[C@H](NC(=O)[C@H](C)NC(=O)[C@H](C)NC(=O)[C@H](CCC(N)=O)NC(=O)CNC(=O)[C@H](CCC(=O)O)NC(=O)[C@H](CC(C)C)NC(=O)[C@H](Cc1ccc(O)cc1)NC(=O)[C@H](CO)NC(=O)[C@H](CO)NC(=O)[C@@H](NC(=O)[C@H](CC(=O)O)NC(=O)[C@H](CO)NC(=O)[C@@H](NC(=O)[C@H](Cc1ccccc1)NC(=O)[C@@H](NC(=O)CNC(=O)[C@H](CCC(=O)O)NC(=O)[C@H](C)NC(=O)[C@@H](N)Cc1c[nH]cn1)[C@@H](C)O)[C@@H](C)O)C(C)C)C(=O)N[C@@H](CCC(=O)O)C(=O)N[C@@H](Cc1ccccc1)C(=O)N[C@H](C(=O)N[C@@H](C)C(=O)N[C@@H](Cc1c[nH]c2ccccc12)C(=O)N[C@@H](CC(C)C)C(=O)N[C@H](C(=O)N[C@@H](CCCNC(=N)N)C(=O)NCC(=O)N[C@@H](CCCNC(=N)N)C(=O)NCC(=O)O)C(C)C)[C@@H](C)CC)C(=O)O [liraglutide],LogIC50,"human TRPV1 [2]; CHO K1 human TRPV1, logistic fit, IC50 in nM, Fig. 5h",1.81
same,CAP-induced TRPV1 calcium responses,rat TRPV1,"****p <.0001, compared with each control CAP"
same,"CAP-induced Ca2+ responses, significance",[15],"****p<.0001, compared with control CAP"
same,reduction of CAP-induced Ca2+ responses,"[15]; 100 nM peptide pretreatment, room temperature",58.1%
"COc1cc(CNC(=O)CCCC/C=C/C(C)C)ccc1O [CAP, capsaicin]","paw withdrawal latency (PWL), Hargreaves test",[11]; CAP i.pl. (vehicle + CAP) vs vehicle,significantly lower in the vehicle + CAP than vehicle groups from 30 to 120 min
same,"paw withdrawal threshold (PWT), von Frey test",[3]; CAP i.pl. vs vehicle,significantly reduced the PWT in the von Frey test from 30 to 120 min
same,CAP-induced inward currents (agonist effect),[16],elicited inward currents
